Results: US9101569B2, “Methods for the treatment of insulin resistance” (UNIVERSITE DE GENEVE, priority 2010, dated 2015)

Tests used:
wild-type mice = assay: Peripheral OT infusion in wild-type littermate mice; assay type: in vivo; conditions: peripheral 50 nmol/day over 3 days
Experimental: (§1) The beneficial metabolic effects of OT administration were assayed in the same high-fat diet induced obesity model in rats as in Example 1 and in PPAR-alpha knockout mice (Lee et al., 1995, Mol. Cell. Biol., 15(6):3012-22). HFD-induced obese animals, saline or OT groups (see conditions under Example 1) were subcutaneously infused via minipumps (Alzet®, as above). OT was delivered at a dose of 50 nmol/day/rat during 14 days.
(§2) OT was peripherally administered with 50 nmol/day over 3 days in PPAR-alpha knockout (KO) mice and their wild-type littermates. […] Consistently, OT peripheral infusion promoted an increase in the mRNA expression of PPAR-alpha target genes (Acadm, Acox1, Ehhadh, Ucp3) in wild-type mice, while it had no effect in PPAR-alpha knockouts.

[1] = Plasma measurements after i.c.v. OT infusion in HFD-induced obese rats; assay type: in vivo, rat; conditions: rat, plasma, 1.6 nmol/day/rat; i.c.v. OT 1.6 nmol/d, 14 days; mean ± SEM; read-out: plasma Oxytocin
Experimental: (§3) After three weeks of HFD feeding, rats were submitted to surgical procedures. They were anesthetized with intramuscular injection of ketamine-xylasine (Ketalar®-Rompun®, Parke-Davis and Bayer, Leverkusen, Switzerland) at 40 and 9 mg/kg, respectively, and implanted with a cannula in the right lateral cerebral ventricle fixed on the skull with dental cement, as previously described (Rohner-Jeanrenaud et al., 1989, Endocrinology 124, 733-9). After one week of recovery, the drinking response to i.c.v. injection of Angiotensin II (5 ng/μl) (Novabiochem, Laüfelfingen, Switzerland) was measured to confirm the correct placement of the cannula. At the end of the fifth week of high fat diet feeding, osmotic minipumps (Alzet®, model 2001, Alza Corporation, Cupertino, Calif.) delivering oxytocin (NeoMPS®, Strasbourg, France) or its vehicle (NaCl 0.9%) were subcutaneously implanted and connected to the i.c.v. cannula via a polyethylene catheter, as previously described (Rohner-Jeanrenaud et al., 1989, above). OT was delivered at a dose of 1.6 nmol/day/rat or 16 nmol/day/rat during 14 days. A group of vehicle-infused rats was pair-fed to the amount of food consumed by OT-infused animals in order to assess the effects of OT independently from changes in food intake. The pair-feeding regimen consisted in giving one-third of the daily food amount in the morning and the remaining two-thirds just before onset of darkness. Rats were sacrificed using isoflurane anesthesia (Halocarbon Laboratories, River Edge, N.J.) and rapid decapitation between 09:00 and 13:00 h. Blood samples were collected into EDTA-coated tubes, centrifuged and plasma stored at −20° C. Tissues were rapidly removed, freeze-clamped, and stored at −80° C.
(§4) To determine the effect of OT on peripheral metabolism, levels of plasma glucose, insulin, leptin, FFA, glycerol and TG were determined. Plasma glucose was measured by the glucose oxidase method (Glu, Roche Diagnostics GmbH, Rotkreuz, Switzerland). Plasma non-esterified fatty acid (NEFA) and triglyceride (TG) levels were determined using NEFA C and TG enzymatic PAP150 commercial kits from Wako Chemicals GmbH (Neuss, Germany) and Biomérieux (Marcy l'Etoile, France), respectively. Plasma OT levels were determined using an ELISA, as previously described (Pequeux et al., 2001, Scand. J. Clin. Lab. Invest., 61, 407-415). Plasma glycerol levels were measured using the free Glycerol Reagent (Sigma).

HFD-induced obese rats [2] = assay: as above; assay type: in vivo, rat
Experimental: as §3, §4

[3] = test system: epididymal white adipose tissue (eWAT); assay: eWAT endocannabinoid content after i.c.v. OT infusion; assay type: in vivo, rat
HFD-induced obese rats [4] = assay: Plasma glycerol after subcutaneous OT infusion in HFD-induced obese rats; assay type: in vivo, rat; conditions: peripheral (s.c.) OT 50 nmol/day
Experimental: Another group of the above male Wistar rats were rendered obese as described above and were subcutaneously infused with saline or OT (NeoMPS®, Strasbourg, France) (50 nmol/day/rat) during 14 days.
as §4

[5] = test system: PPAR-alpha knockout (KO) mice; assay: Peripheral OT infusion in PPAR-alpha knockout mice; assay type: in vivo; conditions: peripheral 50 nmol/day over 3 days
Experimental: as §1, §2

[6] = i.c.v. OT 1.6 nmol/d, 14 days, mean ± SEM
[7] = i.c.v. OT 1.6 nmol/d, 14 days, mean ± SEM, listed as Oxytocin

## CC[C@H](C)[C@@H]1NC(=O)[C@H](Cc2ccc(O)cc2)NC(=O)[C@@H](N)CSSC[C@@H](C(=O)N2CCC[C@H]2C(=O)N[C@@H](CC(C)C)C(=O)NCC(N)=O)NC(=O)[C@H](CC(N)=O)NC(=O)[C@H](CCC(N)=O)NC1=O [OT, Cys-Tyr-Ile-Gln-Asn-Cys-Pro-Leu-Gly (SEQ ID NO: 1)]
wild-type mice
  body weight gain: significant decrease
  mRNA expression of PPAR-alpha target genes (Acadm, Acox1, Ehhadh, Ucp3): increase
[1]
  level at 336 h: 0.0218 ± 0.0058 ng/mL
HFD-induced obese rats [2]; central (i.c.v.) OT 1.6 nmol/day
  plasma glycerol levels: increased
HFD-induced obese rats [2]; [6]
  plasma 2-AG: 53 ± 4.9 pmol/mL
  plasma AEA: 19 ± 2.3 pmol/mL
  plasma FFA: unchanged
  plasma Glucose: unchanged
  plasma Insulin: unchanged
  plasma Leptin: unchanged
  plasma OEA: 178 ± 15 pmol/mL
  plasma Oxytocin: increased
  plasma PEA: 1.63 ± 0.15 nmol/mL
  plasma TG: decreased
HFD-induced obese rats [2]; [7]
  plasma FFA: 0.70 ± 0.06 mmol/L
  plasma Glucose: 159.5 ± 4.1 mg/dL
  plasma Insulin: 1.7 ± 0.3 ng/mL
  plasma Leptin: 11.3 ± 2.2 ng/mL
  plasma TG: 0.80 ± 0.05 mmol/L
[3]; chronic i.c.v. OT 1.6 nmol/d, compared with saline
  eWAT OEA content: increased
[3]; chronic i.c.v. OT infusion
  eWAT content of other endocannabinoids (PEA, AEA, 2-AG): not modifying
[3]; i.c.v. 1.6 nmol/d (lower dose)
  stimulatory effect on OEA content: 1.3 folds
[3]; i.c.v. 16 nmol/d
  stimulatory effect on OEA content: 2 folds
HFD-induced obese rats [4]
  plasma glycerol levels: increased
[5]
  body weight gain: did not modify
  mRNA expression of PPAR-alpha target genes (Acadm, Acox1, Ehhadh, Ucp3): no effect
